Source: publication PMC10595561, “A novel microextraction technique aided by air agitation using a natural hydrophobic deep eutectic solvent for the extraction of fluvastatin and empagliflozin from plasma samples: application to pharmacokinetic and drug–drug interaction study” (RSC Advances, 2023)
Where two headings read alike, the source gives them in different places.

Columns and labels:
[1] = system: organic anion transporting polypeptide 1B1 (OATP1B1); set-up: method as in PMID 27936281, PMID 19785645, PMID 29538325; conditions: cited from earlier work
[2] = cited from earlier work
[3] = Pharmacokinetic study of FLV in rabbits after oral FLV alone and with EMP; type: in vivo, New Zealand white rabbits; conditions: mean ± SD; for AUC(0-t) / k el / half-life / AUC(0-inf) / Cmax / MRT: rabbit, plasma, po, 2 mg/kg; for AUC(0-t): read-out: AUC0-24; for k el: read-out: Ke (elimination rate constant) (converted); for half-life: read-out: t0.5 (elimination half-life) (converted)
Description: Ethical approval (under the No. 06/2023/0111) for this research was granted by the ethics committee at Assiut University, Egypt, and the study was conducted in adherence to the principles outlined in the Declaration of Helsinki. The study involved six New Zealand white rabbits, each weighing 2.0 ± 0.2 kg, obtained from a licensed animal supplier in Assiut, Egypt. Before commencing the study, the rabbits' health was evaluated, ensuring they were in good condition. The rabbits were individually housed in cages measuring 0.8 × 0.6 × 0.5 m and given a 15 day acclimatization period to adjust to the experimental conditions and handling. During this time, no medications or vaccines were administered to the rabbits. The room temperature was kept constant at 25 ± 2 °C, and the relative humidity was maintained at 50 ± 5%. Throughout the acclimatization period, the rabbits were provided with a commercial pellet diet and water. Before the experiment began, the rabbits fasted for approximately 12 hours while being allowed access to water.
The rabbits administered FLV via oral route at a dose of 2.0 mg kg^−1. After a washout period of 14 days to allow any FLV to clear from the rabbits' bodies, the same rabbits administered both (2 mg kg^−1 for FLV and 1.5 mg kg^−1 for EMP). Blood samples (1.0 mL) were collected after administration of the studied analytes after 0.25, 0.5, 1, 1.5, 3, 5, 7, 10, 12, 18 and 24 h of their administration. The samples were drawn from marginal ear vein, placed into tubes that had been heparinized, and centrifuged for 15 minutes at 6000 rpm. The plasma was then collected and stored at −20 °C in dark containers until analysis. The pharmacokinetic parameters of FLV were calculated using one compartment model for the treated group using Phoenix®WinNonlin software version 5.1 (Pharsight, Mountain View, CA, USA). These parameters included total area under the curve (AUC) from 0 to 24 hours (AUC0→24), cumulative plasma concentration from 0 to infinity (AUC0→∞), peak plasma concentration (Cmax), elimination rate constant (Ke), mean residence time (MRT), absorption half-life (t1/2a), and elimination half-life (t1/2). The data are reported as mean ± standard deviation (mean ± SD). To analyze differences in parameters between the groups, t-test was employed, using GraphPad Prism 9.0.

[4] = carboxylic acid functional group; no reference given; cited from earlier work
[5] = New Zealand white, FLV (2 mg kg−1) co-administered with EMP (1.5 mg kg−1), oral, rabbit plasma
[6] = New Zealand white, FLV (2 mg kg−1) co-administered with EMP (1.5 mg kg−1), rabbit plasma
[7] = New Zealand white, FLV alone, oral 2.0 mg kg−1, rabbit plasma

Ka ([3]; FLV (2 mg kg−1) co-administered with EMP (1.5 mg kg−1), oral, rabbit plasma) [h⁻¹] | Ka ([3]; FLV alone, oral 2.0 mg kg−1, rabbit plasma) [h⁻¹] | AUC(0-t) [3, 5] [ng·h/mL] | k el [3, 5] [s⁻¹] | half-life [3, 5] [h] | AUC(0-inf) [3, 6] [ng·h/mL] | Cmax [3, 6] [ng/mL] | MRT [3, 6] [h] | AUC(0-inf) [3, 7] [ng·h/mL] | Cmax [3, 7] [ng/mL] | MRT [3, 7] [h] | AUC(0-t) [3, 7] [ng·h/mL] | k el [3, 7] [s⁻¹] | half-life [3, 7] [h] | Tmax [3, 5] [h] | SMILES | Effect on OATP1B1 transporter [1] | log P [2] | pKa [4]
 |  |  |  |  |  |  |  |  |  |  |  |  |  |  | OC[C@H]1O[C@@H](c2ccc(Cl)c(Cc3ccc(O[C@H]4CCOC4)cc3)c2)[C@H](O)[C@@H](O)[C@@H]1O [EMP, Empagliflozin] | inhibit | 1.7 | 
2.52 ± 0.42 | 2.24 ± 0.42 | 2580 ± 245 | 2.5e-05 | 7.73 | 2900 ± 189 | 352 | 7.66 ± 0.77 | 1370 ± 144 | 250 | 6.99 ± 0.89 | 1340 ± 452 | 4.44e-05 | 4.27 | 1.5 | CC(C)n1c(/C=C/C(O)CC(O)CC(=O)O)c(-c2ccc(F)cc2)c2ccccc21 (stereo not shown) [FLV, Fluvastatin] |  | 4.5 | around 4.8
